# Counter-ions that a name gives are not always drawn. Like-named read-outs stand apart in the source and are kept apart here.
# Columns and labels:
# [1] = test system: aCD3/aCD28-stimulated human PBMCs; test: Cytokine production in aCD3/aCD28 stimulated human PBMCs; format: cell-based; conditions: PBMC, 18 h
# Summary of the method: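 Compound effects measured in buffy-coat PBMCs activated 18 h at 37° C by 1 μg/mL each of soluble anti-CD3 (OKT3) and anti-CD28 (28.2), 1e6 cells/mL. Cytokines in harvested supernatants read by MSD or HTRF.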
# [2] = test system: aCD3/aCD28-stimulated human CD4+-T-cells; test: IL-2 production and activation markers in aCD3/aCD28 stimulated isolated human CD4+-T-cells; format: cell-based; conditions: IL-2 production at 3 μM compound
# Summary of the method: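 CD4+ T cells isolated from buffy-coat PBMCs by microbeads were plated in Xvivo medium (1.5*10^5 cells/well) and stimulated with anti-CD3/28 mAbs plus compound. IL-2 measured by ELISA in supernatants at 24 h or 48 h; CD25 and proliferation by flow cytometry, CD69 at 24 h. Activity classes based on IL-2 at 3 μM compound.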
# [3] = enhancement of IFN-γ production, read-out: Activity Class IFN-γ
# [4] = enhancement of IL-2 production, read-out: Activity Class IL-2
SMILES,"EC50 [1, 3] [µM]","EC50 [1, 4] [µM]",Activity Class CD4+ [2]
"CCCCNC(=O)c1cc2c(cn1)S(=O)(=O)C[C@H](N)C(=O)N2Cc1ccc(Cl)cc1 [Example 183, (3R)-3-amino-N-butyl-1-[(4-chlorophenyl)methyl]-2,5,5-trioxo-1H,2H,3H,4H-5λ^6-pyrido[3,4-b][1,4]thiazepine-8-carboxamide hydrochloride]",> 5.01,> 5.01,C (IL-2 production at 3 μM compound concentration between 2-fold increase as compared to mean IL-2 production of stimulated cells in the absence of compounds and <2 ng/mL)
"CC1(NC(=O)c2cc3c(cc2F)S(=O)(=O)C[C@H](N)C(=O)N3Cc2ccc(Cl)cc2)CCC1.Cl [Example 100, (3R)-3-amino-5-[(4-chlorophenyl)methyl]-8-fluoro-N-(1-methylcyclobutyl)-1,1,4-trioxo-2,3,4,5-tetrahydro-1λ^6,5-benzothiazepine-7-carboxamide hydrochloride]",< 1.58,< 1.58,A (IL-2 production at 3 μM compound concentration >10 ng/mL)
"CCCCCCCCCCCCCCCCNC(=O)c1cc2c(cc1F)S(=O)(=O)C[C@H](N)C(=O)N2Cc1ccc(Cl)cc1.Cl [Example 109, (3R)-3-amino-5-[(4-chlorophenyl)methyl]-8-fluoro-N-hexadecyl-1,1,4-trioxo-2,3,4,5-tetrahydro-1λ^6,5-benzothiazepine-7-carboxamide hydrochloride]",< 1.58,< 1.58,A (IL-2 production at 3 μM compound concentration >10 ng/mL)
"Cl.N[C@H]1CSc2ccc(C(=O)NCc3ccc(F)cc3)cc2N(Cc2ccc(Cl)cc2)C1=O [Example 26, (3R)-3-amino-5-[(4-chlorophenyl)methyl]-N-[(4-fluorophenyl)methyl]-4-oxo-2,3,4,5-tetrahydro-1,5-benzothiazepine-7-carboxamide hydrochloride]",< 1.58,1.58 to 5.01,B (IL-2 production at 3 μM compound concentration between 2-10 ng/mL)
"Cl.N[C@H]1CSc2ccc(C(=O)NCC3CCOCC3)cc2N(Cc2ccc(Cl)cc2)C1=O [Example 23, (3R)-3-amino-5-[(4-chlorophenyl)methyl]-N-(oxan-4-ylmethyl)-4-oxo-2,3,4,5-tetrahydro-1,5-benzothiazepine-7-carboxamide hydrochloride]",1.58 to 5.01,> 5.01,B (IL-2 production at 3 μM compound concentration between 2-10 ng/mL)
"CC(C)CONC(=O)c1cc2c(cc1F)SC[C@H](N)C(=O)N2Cc1ccc(Cl)cc1.Cl [Example 59, (3R)-3-amino-5-[(4-chlorophenyl)methyl]-8-fluoro-N-(2-methylpropoxy)-4-oxo-2,3,4,5-tetrahydro-1,5-benzothiazepine-7-carboxamide hydrochloride]",1.58 to 5.01,1.58 to 5.01,C (IL-2 production at 3 μM compound concentration between 2-fold increase as compared to mean IL-2 production of stimulated cells in the absence of compounds and <2 ng/mL)
"CCCONC(=O)c1cc2c(cc1F)SC[C@H](N)C(=O)N2Cc1ccc(Cl)cc1.Cl [Example 58, (3R)-3-amino-5-[(4-chlorophenyl)methyl]-8-fluoro-4-oxo-N-propoxy-2,3,4,5-tetrahydro-1,5-benzothiazepine-7-carboxamide hydrochloride]",> 5.01,> 5.01,C (IL-2 production at 3 μM compound concentration between 2-fold increase as compared to mean IL-2 production of stimulated cells in the absence of compounds and <2 ng/mL)
"CCCCNC(=O)c1ccc2c(c1)N(Cc1ccc(C#N)cc1)C(=O)[C@@H](N)CS2.Cl [Example 21, (3R)-3-amino-N-butyl-5-[(4-cyanophenyl)methyl]-4-oxo-2,3,4,5-tetrahydro-1,5-benzothiazepine-7-carboxamide hydrochloride]",< 1.58,> 5.01,C (IL-2 production at 3 μM compound concentration between 2-fold increase as compared to mean IL-2 production of stimulated cells in the absence of compounds and <2 ng/mL)
"COc1ccc(CNC(=O)c2cc3c(cc2F)SC[C@H](N)C(=O)N3Cc2ccc(Cl)cc2)cc1.Cl [Example 43, (3R)-3-amino-5-[(4-chlorophenyl)methyl]-8-fluoro-N-[(4-methoxyphenyl)methyl]-4-oxo-2,3,4,5-tetrahydro-1,5-benzothiazepine-7-carboxamide hydrochloride]",< 1.58,1.58 to 5.01,C (IL-2 production at 3 μM compound concentration between 2-fold increase as compared to mean IL-2 production of stimulated cells in the absence of compounds and <2 ng/mL)
"CC(C)CONC(=O)c1cc2c(cc1F)S(=O)(=O)C[C@H](N)C(=O)N2Cc1ccc(Cl)cc1.Cl [Example 75, (3R)-3-amino-5-[(4-chlorophenyl)methyl]-8-fluoro-N-(2-methylpropoxy)-1,1,4-trioxo-2,3,4,5-tetrahydro-1λ^6,5-benzothiazepine-7-carboxamide hydrochloride]",1.58 to 5.01,> 5.01,B (IL-2 production at 3 μM compound concentration between 2-10 ng/mL)
"CC(C)NC(=O)c1cc2c(cc1F)S(=O)(=O)C[C@H](N)C(=O)N2Cc1ccc(Cl)cc1F.Cl [Example 87, (3R)-3-amino-5-[(4-chloro-2-fluorophenyl)methyl]-8-fluoro-1,1,4-trioxo-N-(propan-2-yl)-2,3,4,5-tetrahydro-1λ^6,5-benzothiazepine-7-carboxamide hydrochloride]",> 5.01,> 5.01,C (IL-2 production at 3 μM compound concentration between 2-fold increase as compared to mean IL-2 production of stimulated cells in the absence of compounds and <2 ng/mL)
"CC1(C)CC1NC(=O)c1cc2c(cc1F)S(=O)(=O)C[C@H](N)C(=O)N2Cc1ccc(Cl)cc1.Cl (stereo partly drawn) [Example 101, (3R)-3-amino-5-[(4-chlorophenyl)methyl]-N-(2,2-dimethylcyclopropyl)-8-fluoro-1,1,4-trioxo-2,3,4,5-tetrahydro-1λ^6,5-benzothiazepine-7-carboxamide hydrochloride]",< 1.58,1.58 to 5.01,B (IL-2 production at 3 μM compound concentration between 2-10 ng/mL)
"Cl.N[C@H]1CSc2ccc(C(=O)NCc3ccc(F)cc3)cc2N(Cc2ccc(OC(F)(F)F)cc2)C1=O [Example 31, (3R)-3-amino-N-[(4-fluorophenyl)methyl]-4-oxo-5-{[4-(trifluoromethoxy)phenyl]-methyl}-2,3,4,5-tetrahydro-1,5-benzothiazepine-7-carboxamide hydrochloride]",< 1.58,< 1.58,B (IL-2 production at 3 μM compound concentration between 2-10 ng/mL)
"C=CCCNC(=O)c1ccc2c(c1)N(Cc1ccc(Cl)cc1)C(=O)[C@@H](N)CS2.Cl [Example 64, (3R)-3-amino-N-(but-3-en-1-yl)-5-[(4-chlorophenyl)methyl]-4-oxo-2,3,4,5-tetrahydro-1,5-benzothiazepine-7-carboxamide hydrochloride]",1.58 to 5.01,> 5.01,C (IL-2 production at 3 μM compound concentration between 2-fold increase as compared to mean IL-2 production of stimulated cells in the absence of compounds and <2 ng/mL)
"Cl.N[C@H]1CSc2ccc(C(=O)NCC3CCCOC3)cc2N(Cc2ccc(Cl)cc2)C1=O (stereo partly drawn) [Example 28, (3R)-3-amino-5-[(4-chlorophenyl)methyl]-N-(oxan-3-ylmethyl)-4-oxo-2,3,4,5-tetrahydro-1,5-benzothiazepine-7-carboxamide hydrochloride]",1.58 to 5.01,> 5.01,C (IL-2 production at 3 μM compound concentration between 2-fold increase as compared to mean IL-2 production of stimulated cells in the absence of compounds and <2 ng/mL)
"C[C@@H]1[C@H](N)C(=O)N(Cc2ccc(Cl)cc2)c2cc(C(=O)NC3CC3(F)F)ccc2S1(=O)=O.Cl (stereo partly drawn) [Example 108, (2R,3R)-3-amino-5-[(4-chlorophenyl)methyl]-N-(2,2-difluorocyclopropyl)-2-methyl-1,1,4-trioxo-2,3,4,5-tetrahydro-1λ^6,5-benzothiazepine-7-carboxamide hydrochloride]",> 5.01,> 5.01,C (IL-2 production at 3 μM compound concentration between 2-fold increase as compared to mean IL-2 production of stimulated cells in the absence of compounds and <2 ng/mL)
"Cl.N[C@H]1CS(=O)(=O)c2cc(F)c(C(=O)NOc3ccccc3)cc2N(Cc2ccc(OC(F)(F)F)cc2)C1=O [Example 74, (3R)-3-amino-8-fluoro-1,1,4-trioxo-N-phenoxy-5-{[4-(trifluoromethoxy)phenyl]methyl}-2,3,4,5-tetrahydro-1λ^6,5-benzothiazepine-7-carboxamide hydrochloride]",1.58 to 5.01,> 5.01,C (IL-2 production at 3 μM compound concentration between 2-fold increase as compared to mean IL-2 production of stimulated cells in the absence of compounds and <2 ng/mL)
"Cl.N[C@H]1CSc2ccc(C(=O)NCc3ccc(N4CCOCC4)cc3)cc2N(Cc2ccc(OC(F)(F)F)cc2)C1=O [Example 11, (3R)-3-amino-N-{[4-(morpholin-4-yl)phenyl]methyl}-4-oxo-5-{[4-(trifluoromethoxy)-phenyl]methyl}-2,3,4,5-tetrahydro-1,5-benzothiazepine-7-carboxamide hydrochloride]",> 5.01,> 5.01,C (IL-2 production at 3 μM compound concentration between 2-fold increase as compared to mean IL-2 production of stimulated cells in the absence of compounds and <2 ng/mL)
